Experimental data from patent US20060198832A1, “Peptide drugs for chronic lymphocytic leukemia (CLL) and other cancers” (priority 2004, published 2006).
One block for each substance: values may come before it. Bridges are numbered along the chain shown (N, C = ends). Roman numbers before positions name the chains, in order. Where no end group is shown, it is not given here.

What was measured:
GST-Bcl2(1-205) = biological target: T1, GST-Bcl2(1-205) (Homo sapiens, UniProt P10415); test: competition ELISA for binding of BAD peptides to Bcl-2; settings: FIG. 1
T1 construct: 50 ng GST-Bcl2(1-205; Santa Cruz Biotechnology; Santa Cruz, Calif.); purchased Santa Cruz Biotechnology
Description: To determine binding affinity to Bcl-2, competition ELISA assays were performed essentially as described in Cabezas et al., supra, 2001, with the following components. Briefly, acetyl-Cys(biotin-BMCC)-Ahx-Bad peptide (50 ng peptide/50 μl ELISA buffer) was adsorbed to 96-well neutraAvidin coated microtiter plates. Competition peptides were subsequently mixed with 50 ng GST-Bcl2(1-205; Santa Cruz Biotechnology; Santa Cruz, Calif.) in 50 μl ELISA buffer per titer well and incubated for one hour at 37° C. Wells were washed and treated with 50 μl of a 1/4000 dilution of anti-GST Mab 7E5 (from ascites fluid provided by Shinichi Kitada) in ELISA buffer for one hour at 37° C. Quantification of peptide-bound GST-Bcl2/Mab7E5 complex was carried out with alkaline-phosphatase-conjugated goat […] and p-nitrophenylphosphate substrate as described in Cabezas et al., supra, 2001.

[1] = system: chronic lymphocytic leukemia (CLL) cells; test: viability/apoptosis of CLL cells electroporated with peptides (Annexin V-FITC/PI flow cytometry); type: cell-based, human
Description: Peripheral blood mononuclear cells (PBMC) from patients with chronic lymphocytic leukemia (CLL) were obtained from the CLL Research Consortium (CRC) tissue bank. Briefly, heparinized peripheral blood was obtained from patients diagnosed with B-CLL according to standard criteria (Chenson et al., Blood 87:4990-4997 (1996)). Lymphocytes were isolated by Ficoll density-gradient centrifugation and verified by immunofluorescence flow cytometry to be composed of greater than 95% CD5/CD19/CD23 triple positive B cells. […] CLL cells were electroporated with a dimethyl sulfoxide (DMSO) control or peptides essentially as described in […] et al., J. Immunol. Methods 275:41-56 (2003), and […] et al., Cancer Res. 63:1242-1248 (2003). For evaluation of apoptosis, at least 5×10^5 cells were recovered by centrifugation and double-stained with Annexin V-FITC, an early marker of apoptosis, and propidium iodide (PI), a nucleic acid-binding vital dye, followed by flow-cytometric analysis using the FL-1 and FL-3 channels of a Becton Dickinson flow cytometer (FACSort; San Jose, Calif.).

697-neo cells = test: cell viability assay in 697-neo cells; type: cell-based; settings: low Bcl-2, FIG. 6
Description: (§1) The peptides were tested in cell viability assays essentially as described above in Examples I and II. Experiments were carried out in 697-neo and 697-Bcl-2 cells. 697 cells are from a cell line of preB leukemic cells. 697-Bcl-2 cells have been engineered to express high levels of Bcl-2. AML-349 and AML-728 are myeloblasts (verified by FACS analysis via CD34-positivity) that were isolated from respective patients with acute myelogenous leukemia (AML).

Bcl-2 family Bcl-2/x1 = Bcl-2 family Bcl-2/x1 (Homo sapiens, UniProt P10415); test: binding of penetratin-linked peptides to Bcl-2 (method not described)
697-Bcl-2 cells = test: cell viability assay in 697-Bcl-2 cells; type: cell-based; settings: 697-Bcl2 cells with higher levels of Bcl-2, FIG. 6 and 7
Description: as §1

[2] = system: acute myelogenous leukemia (AML) cells; test: cell viability/apoptosis in patient AML cells; type: cell-based, human
Description: as §1

Sequence of Bcl-2 family Bcl-2/x1 (P10415 1-205): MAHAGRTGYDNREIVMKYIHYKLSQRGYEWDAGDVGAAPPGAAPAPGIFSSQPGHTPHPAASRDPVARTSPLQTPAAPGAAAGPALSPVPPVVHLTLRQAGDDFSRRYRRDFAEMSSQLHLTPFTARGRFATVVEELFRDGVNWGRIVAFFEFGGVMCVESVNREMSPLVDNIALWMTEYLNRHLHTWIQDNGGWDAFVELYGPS
T1 sequence (P10415 1-205): as above

Substance: NLWAAQRYGRELRRMADEFVDAFKK [SEQ ID NO: 2]
binding affinity for Bcl-2 compared to wild type BAD peptide (GST-Bcl2(1-205)): significantly higher binding affinity for Bcl-2 than the wild type BAD peptide
cell viability (Induction of Apoptosis in CLL Cells), patient sample JCB 178 ([1]; CLL patient sample JCB 178, peptide electroporated): 12%
cell viability (Induction of Apoptosis in CLL Cells), patient sample MA G15 ([1]; CLL patient sample MA G15, peptide electroporated): 2%
cell viability (Induction of Apoptosis in CLL Cells), patient sample TJK 328 ([1]; CLL patient sample TJK 328, peptide electroporated): 10%
cell viability (Induction of Apoptosis in CLL Cells), patient sample TJK 340 #1 ([1]; CLL patient sample TJK 340 #1, peptide electroporated): 12%
cell viability (Induction of Apoptosis in CLL Cells), patient sample TJK 340 #2 ([1]; CLL patient sample TJK 340 #2, peptide electroporated): 12%
cell viability (Induction of Apoptosis in CLL Cells), patient sample TJK 375 ([1]; CLL patient sample TJK 375, peptide electroporated): 22%
cell viability (Induction of Apoptosis in CLL Cells), Av. ([1]; average of the five preceding patient sample columns, peptide electroporated): 14%
cell viability of CLL cells ([1]; electroporated peptide, FIG. 2): significantly reduced
cell viability in all the patient CLL samples ([1]; electroporated peptide, summary of Table 4): dramatically reduced

binding to Bcl-2 (Bcl-2 family Bcl-2/x1): binds Bcl-2
Substance: acetyl-NLWAAQRYGRELRRMADEFVDAFKKC-CRQIKIWFQNRRMKWKK-amide [2335] (peptide 1 Ac-NLWAAQRYGRELRRMADEFVDAFKKC; peptide 2 CRQIKIWFQNRRMKWKK-NH2; disulfide I:26-II:1) [compound 2335, Bad 2Ser/Ala peptide disulfide linked to penetratin-1]
activity in reducing cell viability (697-neo cells): more active in 697-neo cells with low Bcl-2 than a 2336 control peptide
amount of peptide needed to kill cells (697-Bcl-2 cells): it takes more 2335 to kill 697 cells with higher levels of Bcl-2
induction of apoptosis / killing ([2]; AML cells of patient AML-349, FIG. 9): induced apoptosis
induction of apoptosis ([2]; AML cells of patient AML-728, FIG. 8): induced apoptosis
